Tests used:
bamyardgrass = assay: Test B flood test barnyardgrass; format: in vivo, Echinochloa crus-galli
Outline: (§1)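 Read-out is a visual response score from 0 (no effect) to 10 (complete control), assigned by comparison with untreated controls. Treatment was applied at the 2-leaf stage, and plants stayed in the greenhouse for twelve to sixteen days before scoring.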

giant foxtail = assay: Test B pre/postemergence giant foxtail; format: in vivo, Setaria faberii
Outline: (§2)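 Test chemicals in a non-phytotoxic solvent mixture with surfactant were sprayed preemergence onto planted seeds and postemergence onto plants 2 to 18 cm tall (1- to 4-leaf stage). After twelve to sixteen days in a greenhouse, injury was visually rated against untreated controls from 0 (no effect) to 10 (complete control).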

morningglory = assay: Test B pre/postemergence morningglory; format: in vivo, Ipomoea hederacea
Outline: as §2

sugar beet = assay: Test B pre/postemergence sugar beet; format: in vivo, Beta vulgaris
Outline: as §2

corn = assay: Test B pre/postemergence corn; format: in vivo, Zea mays
Outline: as §2

rape = assay: Test B pre/postemergence rape; format: in vivo, Brassica napus
Outline: as §2

pigweed = assay: Test B pre/postemergence pigweed; format: in vivo, Amaranthus retroflexus
Outline: as §2

blackgrass = assay: Test B pre/postemergence blackgrass; format: in vivo, Alopecurus myosuroides
Outline: as §2

rice = assay: Test B flood test rice; format: in vivo, Oryza sativa
Outline: as §1

cocklebur = assay: Test B pre/postemergence cocklebur; format: in vivo, Xanthium strumarium
Outline: as §2

wheat = assay: Test B pre/postemergence wheat; format: in vivo, Triticum aestivum
Outline: as §2

wild oat = assay: Test B pre/postemergence wild oat; format: in vivo, Avena fatua
Outline: as §2

bedstraw = assay: Test B pre/postemergence bedstraw; format: in vivo, Galium aparine
Outline: as §2

surinam grass = assay: Test B pre/postemergence surinam grass; format: in vivo, Brachiaria decumbens
Outline: as §2

crabgrass = assay: Test B pre/postemergence crabgrass; format: in vivo, Digitaria sanguinalis
Outline: as §2

purple nutsedge = assay: Test B pre/postemergence purple nutsedge; format: in vivo, Cyperus rotundus
Outline: as §2

[1] = Pre-emergence, Rate 1000 g/ha, scale 0 to 10 (0 no effect, 10 complete control)
[2] = Rate 125 g/ha, under heading Pre-emergence, flood test species, visual evaluation after twelve to sixteen days
[3] = Rate 250 g/ha, Pre-emergence (flood test species), scale 0 to 10, 0 is no effect, 10 is complete control
[4] = Rate 500 g/ha, Pre-emergence section of Table B, 0 to 10 scale (0 no effect, 10 complete control)
[5] = Postemergence, Rate 125 g/ha, scale of 0 to 10 where 0 is no effect and 10 is complete control
[6] = Postemergence, Rate 250 g/ha, scale of 0 to 10, 0 is no effect, 10 is complete control
[7] = Postemergence, Rate 500 g/ha, scale of 0 to 10 where 0 is no effect and 10 is complete control
[8] = Postemergence, Rate 1000 g/ha, scale 0 to 10 (0 no effect, 10 complete control)
[9] = Preemergence, Rate 125 g/ha, scale of 0 to 10 where 0 is no effect and 10 is complete control
[10] = Preemergence, Rate 500 g/ha, scale of 0 to 10 where 0 is no effect and 10 is complete control
[11] = Rate 1000 g/ha, Preemergence, scale 0 to 10 (0 no effect, 10 complete control)

C=CCn1c(=O)on(C(=O)N(c2c(C)cccc2C)C(C)COC)c1=O (centres unmarked) [Compound 600]
Barnyardgrass plant response rating (bamyardgrass; [1]): 0 | Barnyardgrass plant response rating (0 to 10 scale, 0 is no effect, 10 is complete control) (bamyardgrass; [2]): 0 | Barnyardgrass plant response rating (bamyardgrass; [3]): 0 | Barnyardgrass plant response rating (bamyardgrass; [4]): 0 | Plant response rating, Giant foxtail (giant foxtail; [5]): 0 | Giant foxtail plant response rating (giant foxtail; [6]): 0 | Plant response rating, Giant foxtail (giant foxtail; [7]): 3 | Giant foxtail plant response rating (giant foxtail; [8]): 3 | Giant foxtail plant response rating (giant foxtail; [9]): 0 | Plant response rating, Giant foxtail (giant foxtail; [10]): 0 | Plant response rating, Giant foxtail (giant foxtail; [11]): 0 | Plant response rating, Morningglory (morningglory; [5]): 0 | Morningglory plant response rating (morningglory; [6]): 0 | Plant response rating, Morningglory (morningglory; [7]): 0 | Morningglory plant response rating (morningglory; [8]): 0 | Morningglory plant response rating (morningglory; [9]): 0 | Plant response rating, Morningglory (morningglory; [10]): 0 | Plant response rating, Morningglory (morningglory; [11]): 0 | Plant response rating, Sugarbeets (sugar beet; [5]): 0 | Sugarbeets plant response rating (sugar beet; [6]): 0 | Plant response rating, Sugarbeets (sugar beet; [7]): 0 | Sugarbeets plant response rating (sugar beet; [8]): 0 | Sugarbeets plant response rating (sugar beet; [9]): 0 | Plant response rating, Sugarbeets (sugar beet; [10]): 0 | Plant response rating, Sugarbeets (sugar beet; [11]): 0 | Plant response rating, Corn (corn; [5]): 0 | Corn plant response rating (corn; [6]): 0 | Plant response rating, Corn (corn; [7]): 0 | Corn plant response rating (corn; [8]): 0 | Corn plant response rating (corn; [9]): 0 | Corn plant response rating (0 to 10 scale) (corn; Preemergence, Rate 250 g/ha): 0 | Plant response rating, Corn (corn; [10]): 0 | Plant response rating, Corn (corn; [11]): 0 | Plant response rating, Rape (rape; [5]): 0 | Rape plant response rating (rape; [6]): 0 | Plant response rating, Rape (rape; [7]): 0 | Rape plant response rating (rape; [8]): 0 | Rape plant response rating (rape; [9]): 0 | Plant response rating, Rape (rape; [10]): 0 | Plant response rating, Rape (rape; [11]): 0 | Plant response rating, Redroot pigweed (pigweed; [5]): 0 | Redroot pigweed plant response rating (pigweed; [6]): 0 | Plant response rating, Redroot pigweed (pigweed; [7]): 0 | Redroot pigweed plant response rating (pigweed; [8]): 0 | Redroot pigweed plant response rating (pigweed; [9]): 0 | Plant response rating, Redroot pigweed (pigweed; [10]): 0 | Plant response rating, Redroot pigweed (pigweed; [11]): 0 | Plant response rating, Blackgrass (blackgrass; [5]): 0 | Blackgrass plant response rating (blackgrass; [6]): 0 | Plant response rating, Blackgrass (blackgrass; [7]): 0 | Blackgrass plant response rating (blackgrass; [8]): 0 | Blackgrass plant response rating (blackgrass; [9]): 0 | Blackgrass plant response rating (0 to 10 scale) (blackgrass; Preemergence, Rate 250 g/ha): 0 | Blackgrass plant response rating (blackgrass; [10]): 0 | Plant response rating, Blackgrass (blackgrass; [11]): 0 | Rice plant response rating (rice; [1]): 0 | Rice plant response rating (0 to 10 scale, 0 is no effect, 10 is complete control) (rice; [2]): 0 | Rice plant response rating (rice; [3]): 0 | Rice plant response rating (rice; [4]): 0 | Plant response rating, Cocklebur (cocklebur; [5]): 0 | Cocklebur plant response rating (cocklebur; [6]): 0 | Plant response rating, Cocklebur (cocklebur; [7]): 0 | Cocklebur plant response rating (cocklebur; [8]): 0 | Cocklebur plant response rating (cocklebur; [9]): 0 | Cocklebur plant response rating (0 to 10 scale) (cocklebur; Preemergence, Rate 250 g/ha): 0 | Plant response rating, Cocklebur (cocklebur; [10]): 0 | Plant response rating, Cocklebur (cocklebur; [11]): 0 | Plant response rating, Wheat (wheat; [5]): 0 | Wheat plant response rating (wheat; [6]): 0 | Plant response rating, Wheat (wheat; [7]): 0 | Wheat plant response rating (wheat; [8]): 0 | Wheat plant response rating (wheat; [9]): 0 | Plant response rating, Wheat (wheat; [10]): 0 | Plant response rating, Wheat (wheat; [11]): 0 | Plant response rating, Wild oats (wild oat; [5]): 0 | Wild oats plant response rating (wild oat; [6]): 0 | Plant response rating, Wild oats (wild oat; [7]): 0 | Wild oats plant response rating (wild oat; [8]): 0 | Wild oats plant response rating (wild oat; [9]): 0 | Plant response rating, Wild oats (wild oat; [10]): 0 | Plant response rating, Wild oats (wild oat; [11]): 0 | Plant response rating, Bedstraw (bedstraw; [7]): 0 | Bedstraw plant response rating (bedstraw; [8]): 0 | Bedstraw plant response rating (0 to 10 scale) (bedstraw; Preemergence, Rate 250 g/ha): 0 | Bedstraw plant response rating (bedstraw; [10]): 0 | Plant response rating, Bedstraw (bedstraw; [11]): 0 | Plant response rating, B. signalgrass (surinam grass; [5]): 0 | B. signalgrass plant response rating (surinam grass; [6]): 0 | Plant response rating, B. signalgrass (surinam grass; [7]): 0 | B. signalgrass plant response rating (surinam grass; [8]): 0 | B. signalgrass plant response rating (surinam grass; [9]): 0 | B. signalgrass plant response rating (0 to 10 scale, 0 is no effect, 10 is complete control) (surinam grass; Preemergence, Rate 250 g/ha): 0 | B. signalgrass plant response rating (surinam grass; [10]): 0 | Plant response rating, B. signalgrass (surinam grass; [11]): 0 | Plant response rating, Crabgrass (crabgrass; [5]): 1 | Plant response rating, Crabgrass (crabgrass; [7]): 3 | Crabgrass plant response rating (crabgrass; [8]): 3 | Crabgrass plant response rating (crabgrass; [9]): 0 | Plant response rating, Crabgrass (crabgrass; [10]): 0 | Plant response rating, Crabgrass (crabgrass; [11]): 0 | Plant response rating, Nutsedge (purple nutsedge; [5]): 0 | Nutsedge plant response rating (purple nutsedge; [6]): 0 | Plant response rating, Nutsedge (purple nutsedge; [7]): 0 | Nutsedge plant response rating (purple nutsedge; [8]): 0 | Nutsedge plant response rating (purple nutsedge; [9]): 0 | Plant response rating, Nutsedge (purple nutsedge; [10]): 0 | Plant response rating, Nutsedge (purple nutsedge; [11]): 0

— patent publication US6737383B1, “Herbicidal oxadiazolidines” (priority 1999, dated 2004)
